Assay results: patent US20200338084A1, “INHIBITORS OF LOW MOLECULAR WEIGHT PROTEIN TYROSINE PHOSPHATASE (LMPTP) AND USES THEREOF” (Sanford Burnham Prebys Medical Discovery Institute, priority 2018, published 2020)

Target: T1, human LMPTP-A (Homo sapiens, UniProt P24666)
T1 sequence (P24666 1-158): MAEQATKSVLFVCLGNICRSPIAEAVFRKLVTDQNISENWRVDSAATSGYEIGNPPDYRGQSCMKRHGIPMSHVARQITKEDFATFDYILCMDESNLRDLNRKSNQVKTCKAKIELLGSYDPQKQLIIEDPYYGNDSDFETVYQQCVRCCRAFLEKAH
Assay: Enzyme Assay of Inhibition of LMPTP-A
Type: biochemical
Settings: phosphatase assay, OMFP or pNPP substrate, 50 mM Bis-Tris pH 6.0, 37° C.
Procedure, shortened: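 Recombinant human LMPTP-A in 50 mM Bis-Tris pH 6.0, 1 mM DTT, 0.01% Triton X-100 at 37° C. Substrate OMFP read continuously by fluorescence (485/525 nm), or pNPP stopped with NaOH and read at 405 nm. IC50 taken from inhibitor concentration versus % activity plots.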

Row | Structure (SMILES) | IC50
1 | N#Cc1ccc(Cn2cnc(N)c3ncnc2-3)cc1 [4-((6-amino-3H-purin-3-yl)methyl)benzonitrile] | 1 to 20 µM
2 | N#Cc1ccc(Nc2ncn(Cc3c(Cl)cccc3Cl)c3ncnc2-3)cc1 [4-({3-[(2,6-Dichlorophenyl)methyl]-3-hydropurin-6-yl}amino)benzenecarbonitrile] | 1 to 20 µM
3 | O=C(O)c1ccc(Nc2ncn(Cc3c(Cl)cccc3Cl)c3ncnc2-3)cc1 [4-({3-[(2,6-Dichlorophenyl)methyl]-3-hydropurin-6-yl}amino)benzoic acid] | 1 to 20 µM
4 | Oc1ccc(Nc2ncn(Cc3c(Cl)cccc3Cl)c3ncnc2-3)cc1 [4-({3-[(2,6-Dichlorophenyl)methyl]-3-hydropurin-6-yl}amino)phenol] | 1 to 20 µM
5 | N#Cc1ccc(CNc2ncn(Cc3c(Cl)cccc3Cl)c3ncnc2-3)cc1 [4-[({3-[(2,6-dichlorophenyl)methyl]-3-hydropurin-6-yl}amino)methyl]benzenecarbonitrile] | 1 to 20 µM
6 | N#Cc1ccc(-c2nc3c(N)ncn(Cc4c(Cl)cccc4Cl)c-3n2)cc1 [4-{6-Amino-3-[(2,6-dichlorophenyl)methyl]-3-hydropurin-8-yl}benzenecarbonitrile] | ≤ 1 µM
7 | Nc1ncn(Cc2c(Cl)cccc2Cl)c2nc(C3CCS(=O)(=O)CC3)nc1-2 [4-{6-Amino-3-[(2,6-dichlorophenyl)methyl]-3-hydropurin-8-yl}thiane-1,1-dione] | ≤ 1 µM
8 | N#Cc1ccc(Cn2cnc(NCc3ccco3)c3ncnc2-3)cc1 [4-{6-[(Furan-2-ylmethyl)-amino]-purin-3-ylmethyl}-benzonitrile] | ≥ 20 µM
9 | N#Cc1ccc(-c2nc3c(N)ncn(Cc4c(Cl)cccc4Cl)c-3n2)s1 [5-(6-amino-3-(2,6-dichlorobenzyl)-3H-purin-8-yl)thiophene-2-carbonitrile] | ≤ 1 µM
10 | Nc1ncn(Cc2c(Cl)cccc2Cl)c2nc(/C=C/c3ccccc3)nc1-2 [8-((1E)-2-Phenylvinyl)-3-[(2,6-dichlorophenyl)methyl]-3-hydropurine-6-ylamine] | ≤ 1 µM
11 | Nc1ncn(Cc2c(Cl)cccc2Cl)c2nc(C3C4CC5CC(C4)CC3C5)nc1-2 (centres unmarked) [8-Adamantan-2-yl-3-[(2,6-dichlorophenyl)methyl]-3-hydropurine-6-ylamine] | ≤ 1 µM
12 | Nc1ncn(Cc2c(Cl)cccc2Cl)c2nc(-c3ccc4scnc4c3)nc1-2 [8-Benzothiazol-5-yl-3-[(2,6-dichlorophenyl)methyl]-3-hydropurine-6-ylamine] | ≤ 1 µM
13 | Nc1ncn(Cc2c(Cl)cccc2Cl)c2nc(-c3ccc4ocnc4c3)nc1-2 [8-Benzoxazol-5-yl-3-[(2,6-dichlorophenyl)methyl]-3-hydropurine-6-ylamine] | ≤ 1 µM
14 | Clc1cccc(Nc2ncn(Cc3c(Cl)cccc3Cl)c3ncnc2-3)c1Cl [(2,3-Dichlorophenyl){3-[(2,6-dichlorophenyl)methyl](3-hydropurin-6-yl)}amine] | 1 to 20 µM
15 | NCCNc1ncn(Cc2c(Cl)cccc2Cl)c2ncnc1-2 [(2-Aminoethyl){3-[(2,6-dichlorophenyl)methyl](3-hydropurin-6-yl)}amine] | ≥ 20 µM
16 | c1ccc(-n2cnc(NCc3ccco3)c3ncnc2-3)cc1 [(2-Furylmethyl)(3-phenyl(3-hydropurin-6-yl))amine] | ≥ 20 µM
17 | NCCCCNc1ncn(Cc2c(Cl)cccc2Cl)c2ncnc1-2 [(4-Aminobutyl){3-[(2,6-dichlorophenyl)methyl](3-hydropurin-6-yl)}amine] | 1 to 20 µM
18 | Clc1cccc(Cl)c1Cn1cnc(NCc2ccccc2)c2ncnc1-2 [Benzyl-[3-(2,6-dichloro-benzyl)-3H-purin-6-yl]-amine] | 1 to 20 µM
19 | CCCCNc1ncn(Cc2c(Cl)cccc2Cl)c2ncnc1-2 [Butyl-[3-(2,6-dichloro-benzyl)-3H-purin-6-yl]-amine] | 1 to 20 µM

Row | Structure (SMILES) | IC50
20 | Clc1cccc(Cl)c1Cn1cnc(NC2CC2)c2ncnc1-2 [Cyclopropyl-[3-(2,6-dichloro-benzyl)-3H-purin-6-yl]-amine] | 1 to 20 µM
21 | O=C(Nc1ncn(Cc2c(Cl)cccc2Cl)c2ncnc1-2)c1ccco1 [Furan-2-carboxylicacid [3-(2,6-dichloro-benzyl)-3H-purin-6-yl]-amide] | 1 to 20 µM
22 | Fc1ccc(F)c(Cn2cnc(NCc3ccco3)c3ncnc2-3)c1F [Furan-2-ylmethyl-[3-(2,3,6-trifluoro-benzyl)-3H-purin-6-yl]-amine] | ≥ 20 µM
23 | COc1ccccc1Cn1cnc(NCc2ccco2)c2ncnc1-2 [Furan-2-ylmethyl-[3-(2-methoxy-benzyl)-3H-purin-6-yl]-amine] | ≥ 20 µM
24 | Cc1ccccc1Cn1cnc(NCc2ccco2)c2ncnc1-2 [Furan-2-ylmethyl-[3-(2-methyl-benzyl)-3H-purin-6-yl]-amine] | ≥ 20 µM
25 | COc1ccc(Cn2cnc(NCc3ccco3)c3ncnc2-3)cc1 [Furan-2-ylmethyl-[3-(4-methoxy-benzyl)-3H-purin-6-yl]-amine] | ≥ 20 µM
26 | COC(=O)c1cccc(Nc2ncn(Cc3c(Cl)cccc3Cl)c3ncnc2-3)c1 [Methyl 3-({3-[(2,6-dichlorophenyl)methyl]-3-hydropurin-6-yl}amino)benzoate] | 1 to 20 µM
27 | COC(=O)c1ccc(Nc2ncn(Cc3c(Cl)cccc3Cl)c3ncnc2-3)cc1 [Methyl 4-({3-[(2,6-dichlorophenyl)methyl]-3-hydropurin-6-yl}amino)benzoate] | 1 to 20 µM
28 | CN(C)c1ccc(Nc2ncn(Cc3c(Cl)cccc3Cl)c3ncnc2-3)cc1 [N1-(3-(2,6-dichlorobenzyl)-3H-purin-6-yl)-N4,N4-dimethylbenzene-1,4-diamine] | 1 to 20 µM
29 | CS(=O)(=O)Nc1ncn(Cc2c(Cl)cccc2Cl)c2ncnc1-2 [N-(3-(2,6-dichlorobenzyl)-3h-purin-6-yl)methanesulfonamide] | ≥ 20 µM
30 | Clc1cccc(Cl)c1Cn1cnc(Nc2cccc(OCc3ccccc3)c2)c2ncnc1-2 [N-(3-(benzyloxy)phenyl)-3-(2,6-dichlorobenzyl)-3H-purin-6-amine] | 1 to 20 µM
31 | Cc1c(Cl)cccc1Nc1ncn(Cc2c(Cl)cccc2Cl)c2ncnc1-2 [N-(3-Chloro-2-methylphenyl)-3-(2,6-dichlorobenzyl)-3H-purin-6-amine] | 1 to 20 µM
32 | Clc1ccc(CNc2ncn(Cc3c(Cl)cccc3Cl)c3ncnc2-3)cc1 [N-(4-chlorobenzyl)-3-(2,6-dichlorobenzyl)-3h-purin-6-amine] | 1 to 20 µM
33 | CC(=O)Nc1ncn(Cc2c(Cl)cccc2Cl)c2ncnc1-2 [N-[3-(2,6-Dichloro-benzyl)-3 H-purin-6-yl]-acetamide] | 1 to 20 µM
34 | CCC(=O)Nc1ncn(Cc2c(Cl)cccc2Cl)c2ncnc1-2 [N-[3-(2,6-Dichloro-benzyl)-3 H-purin-6-yl]-propionamide] | 1 to 20 µM
35 | O=C(Nc1ncn(Cc2c(Cl)cccc2Cl)c2ncnc1-2)c1ccccc1 [N-[3-(2,6-Dichloro-benzyl)-3H-purin-6-yl]-benzamide] | ≥ 20 µM
36 | O=C(Nc1ncn(Cc2c(Cl)cccc2Cl)c2ncnc1-2)c1ccncc1 [N-[3-(2,6-Dichloro-benzyl)-3H-purin-6-yl]-isonicotinamide] | ≤ 1 µM
37 | O=C(Nc1ncn(Cc2c(Cl)cccc2Cl)c2ncnc1-2)c1ccccn1 [Pyridine-2-carboxylic acid [3-(2,6-dichloro-benzyl)-3H-purin-6-yl]-amide] | 1 to 20 µM
38 | Clc1ccc(Cn2cnc(NCc3ccco3)c3ncnc2-3)c(Cl)c1 [[3-(2,4-Dichloro-benzyl)-3H-purin-6-yl]-furan-2-ylmethyl-amine] | ≥ 20 µM
